Patent US10172905B1, “Treatment of protein degradation disorders” (President and Fellows of Harvard College, priority 2005, dated 2019)
pIC50: −log10 of the molar value. “Also recorded” adds a separate entry of the source.

Assays:
MM.1S and RPMI8226 cells = test: [3H]-thymidine uptake of MM cells adherent to BMSCs; format: cell-based, human
Method: […] DNA synthesis was measured as described above.
After treatment, DNA synthesis was measured by [^3H]-thymidine (Perkin Elmer, Boston Mass.) uptake, as previously described (44). All experiments were performed in quadruplicate.

MM cell lines = test: MTT growth inhibition / cytotoxicity assay in MM cell lines; format: cell-based, human; conditions: for growth inhibitory / cytotoxic effect as single agent: MM cell lines, MTT and 3H-thymidine uptake
Method: The inhibitory effect of bortezomib and/or tubacin on MM cell growth was assessed by measuring 3-(4,5-dimethylthiazol-2-yl)-2,5-diphenyl tetrazolium bromide (MTT) dye absorbance, as described previously (33). […] All experiments were performed in quadruplicate.
These cells were treated with tubacin (1.25-20 μM) for 48 h (FIG. 2A) and 72 h (FIG. 2B), and cytotoxicity was assessed by MTT assay, as describe.

[1] = system: MM patient plasma cells from BM (BMPCs); test: MTT cytotoxicity assay in MM patient plasma cells; format: cell-based, human; conditions: tubacin 5 μM with bortezomib, 24 h
Text: Dex-sensitive (MM.1S) and resistant (MM.1R) human MM cell lines were kindly provided by Dr. Steven Rosen (Northwestern University, Chicago, Ill.). RPMI8226 and U266 human MM cell lines were obtained from American Type Culture Collection (Rockville, Md.). IL-6 dependent INA-6 cell line was kindly provided by Dr M Gramatzki (Erlangen, Germany). Melphalan-resistant RPMI-LR5 and doxorubicin-resistant RPMI-Dox40 cell lines were provided by Dr William Dalton (Lee Moffitt Cancer Center, Tampa, Fla.). All MM cell lines were cultured in RPMI-1640 containing 10% fetal bovine serum (FBS, Sigma Chemical Co., St. Louis, Mo.), […] L-glutamine, 100 U/ml penicillin, and 100 μg/ml streptomycin (GIBCO, Grand Island, N.Y.). INA-6 cells were maintained with addition of IL-6 (1 ng/ml). MM patient plasma cells were purified from bone marrow (BM) aspirates by negative selection using an antibody cocktail (RosetteSep Separation System, StemCell Technologies, Vancouver, Canada), as previously described (31). The purity of MM cells was >90%, as confirmed by flow cytometric analysis using anti-CD138 Ab (BD Pharmingen, San Diego, Calif.). […]
The inhibitory effect of bortezomib and/or tubacin on MM cell growth was assessed by measuring 3-(4,5-dimethylthiazol-2-yl)-2,5-diphenyl tetrazolium bromide (MTT) dye absorbance, as described previously (33). […]

[2] = system: tubulin acetylation versus lysine acetylation; test: Immunofluorescence assay for acetylated tubulin versus acetylated lysine; format: cell-based
Text: The present invention provides an immunofluorescence-based assay for identifying test agents with HDAC and/or TDAC inhibitory activity. The inventive assay is based on the use of specific antibodies for acetylated tubulin and acetylated lysine (i.e., a marker for acetylated histones). […] As described above, any type of agent, including small molecules, polymers, biomolecules, proteins, peptides, polynucleotides, etc., may be screened using the inventive assay. In certain embodiments, small molecules are screened. In certain particular embodiments, the small molecules are tubacin-like or are tubacin derivatives. In certain embodiments, the small molecules are compounds of the present invention. The test agents may also be small molecules purchased, prepared through traditional synthetic techniques, prepared through combinatorial chemistry techniques, or obtained from historical chemical collections. In certain embodiments, the test agents are biomolecules. In other embodiments, the test agents are proteins or peptides. In yet other embodiments, the test agents are polynucleotides. In certain embodiments, the test agents are polymers.
The assay involves contacting cells with a specific concentration of the test agent under specific conditions. […] There particular parameters may be determined by the operator or scientist conducting the assay as would be appreciated by one of skill in this art. After a determined time of incubation with the test compound, the cells are treated with a first primary antibody directed against acetylated tubulin and a second primary antibody directed against acetylated lysine. […] The signal from each of the secondary antibodies is measured and optionally quantitated to determine the amount of TDAC and HDAC inhibition under the specified conditions with the test agent. Optionally, the extent of inhibition is determined relative to a control in which no test agent was added. In certain embodiments, the secondary antibody is left out and the primary antibodies are uniquely labeled for identification and optionally quantification. […]

PBMCs = test: MTT cytotoxicity assay in normal PBMCs; format: cell-based, human; conditions: PBMCs from normal volunteers, tubacin 2.5-20 μM, 48 h
A549 lung cancer cells = conditions: previously reported; cited from earlier work
breast cancer cells = test: Synergy of bortezomib and tubacin in breast cancer; format: cell-based

SMILES: O=C(CCCCCCC(=O)Nc1ccc([C@H]2O[C@@H](CSc3nc(-c4ccccc4)c(-c4ccccc4)o3)C[C@@H](c3ccc(CO)cc3)O2)cc1)NO [tubacin]
- BMSC-induced [3H]-thymidine uptake / MM cell growth with BMSCs, single agent (MM.1S and RPMI8226 cells; MM cells adherent to BMSCs, 24 h): inhibits BMSC-induced [^3H]-thymidine uptake in a dose-dependent fashion; also recorded: significantly inhibits MM.1S cell growth even in the presence of BMSCs; also recorded: inhibits paracrine MM cell growth
- effect of tubacin on bortezomib-induced inhibition of [3H]-thymidine uptake (MM.1S and RPMI8226 cells; adherent MM.1S and RPMI8226 cells, tubacin with bortezomib): significantly enhances bortezomib-induced inhibition of [^3H]-thymidine uptake; also recorded: further augmented cytotoxicity of Velcade
- pIC50 (MM cell lines; Homo sapiens, 72 h, drug-sensitive and -resistant MM cell lines): 4.70 to 5.30
- growth inhibitory / cytotoxic effect as single agent (MM cell lines): marked anti-proliferative, proapoptotic effects; also recorded: dose-dependent growth inhibitory effect
- growth inhibitory / cytotoxic effect as single agent (MM cell lines; listed as Tubacin): cytotoxic
- effect of tubacin on bortezomib (Velcade)-induced cytotoxicity (MM cell lines; MM.1S and RPMI8226 cells, 24 h, MTT): synergistically enhances bortezomib-induced cytotoxicity; also recorded: Synergy; also recorded: potently sensitizes myeloma cells to subtoxic concentrations of bortezomib; also recorded: significantly (p<0.01) augmented cytotoxicity triggered by Velcade; also recorded: synergistic anti-tumor activity
- effect of tubacin on bortezomib (Velcade)-induced cytotoxicity in patient MM cells [1]: markedly augmented by tubacin; also recorded: significantly (p<0.01) augments cytotoxicity triggered by Velcade; also recorded: synergistically enhances bortezomib-induced cytotoxicity
- specificity for tubulin acetylation versus lysine acetylation ([2]; A549 cells): specificity
- specificity for tubulin acetylation versus lysine acetylation ([2]; cells not given): specificity
- cytotoxicity of tubacin in PBMCs (PBMCs): no cytotoxicity; also recorded: No adverse effect
- histone acetylation, transcriptional profile, cell cycle, viability (A549 lung cancer cells): no effect on histone acetylation, the transcriptional profile, cell cycle, or viability of A549 lung cancer cells
- synergy with bortezomib in breast cancer (breast cancer cells): synergy
